Experimental data as given in patent US8628788B2, “Formulations containing a non-oxidative biocide and a source of active halogen and use thereof in water treatment” (Bromine Compounds, Ltd., priority 2006, dated 2014).

Tested on: Pseudomonas aeruginosa (ATCC 15442)
Experiment: Simulated biofilm (bacteria entrapped in alginate gel beads)
Assay type: cell-based
Conditions: 2.5 ppm DBNPA, 30 minutes contact time
Text: The biofilm simulation was created by entrapping bacteria in alginate gel beads.

## N#CC(Br)(Br)C(N)=O [DBNPA, 2,2-Dibromo-3-nitrilopropionamide]
  log reduction (as compared to control): 3 log reduction
